PMC7285321, “Evaluation of Indolocarbazoles from Streptomyces sanyensis as a Novel Source of Therapeutic Agents against the Brain-Eating Amoeba Naegleria fowleri” (Microorganisms, 2020)
Like-named read-outs stand apart in the source and are kept apart here.

Assays:
[1] = system: Naegleria fowleri ATCC 30808 trophozoites; experiment: In vitro amoebicidal activity, alamarBlue colorimetric assay, trophozoites; conditions: for SI (CC50/IC50): CC50 J774A.1 / IC50 N. fowleri ATCC 30808; for IC50: Naegleria fowleri
Protocol: (§1) Amoebae were grown at 37 °C in axenic conditions in 2% (w/v) bactocasitone medium (Thermo Fisher Scientific, Madrid, Spain) supplemented with 10% (v/v) foetal bovine serum (FBS), […] of penicillin G and 0,5 mg/mL of streptomycin sulphate (Sigma-Aldrich, Madrid, Spain). As required by the Spanish Government biosafety guidelines for this pathogen, amoebic strains were cultured in a biological security facility level 3 at the Instituto Universitario de Enfermedades Tropicales y Salud Pública de Canarias, Universidad de La Laguna.
(§2) The in vitro activity of the four ICZs included in this study was evaluated against trophozoites of two Naegleria fowleri type strains using a colorimetric assay. Amoebae (2 × 10^5 cells/mL) were placed in a sterile 96-well microtiter plate. Next, 50 μL of a serial dilution of each of the ICZs (in N. fowleri culture medium) was added to the plate. In all the activity assays, 2% DMSO was used to dissolve the highest dose of the molecules to prevent generation of any effects in the amoebic cells. Negative controls were also included in the assays, consisting of the addition of medium alone to the seeded trophozoites as previously described. Miltefosine and amphotericin B were used as positive controls whereas the addition of medium alone to the seeded trophozoites was considered as the negative control. Lastly, 10% of the alamarBlue® reagent was placed in each well, and plates were incubated with slight agitation for 48 h at 37 °C. After that, activity plates were evaluated with an EnSpire® Multimode Plate Reader (Perkin Elmer, Madrid, Spain) using a wavelength of 570 nm and a reference wavelength of 630 nm.
(§3) The IC90 values of the compounds were calculated using a GraphPad calculator (GraphPad Software, San Diego, CA, USA) based on the calculated IC50 and the Hill Slope (H). All experiments were performed in triplicate, and the mean values were also calculated.

[2] = system: Naegleria fowleri ATCC 30215 trophozoites; experiment: as above; type: cell-based; conditions: for IC50: ATCC30215, trophozoites, 48 h, 37 °C, mean ± SD, read-out: N. fowleri ATCC 30215 IC50
Protocol: as §1, §2, §3

[3] = Cytotoxicity assay, alamarBlue; type: cell-based; conditions: mouse, 37 °C, mean ± SD, read-out: Murine Macrophage J774.A1 CC50
Protocol: (§4) Evaluation of in vitro toxicity was carried out using the murine macrophage J774A.1 cell line (ATCC # TIB-67, LG Promochem, Barcelona, Spain) which was routinely cultured in Dulbecco’s Modified Eagle’s medium (DMEM, w/v) supplemented with 10% (v/v) FBS and 10 µg/mL of gentamicin (Sigma–Aldrich, Madrid, Spain), at 37 °C in a 5% CO2 atmosphere as previously described.
(§5) Cytotoxicity of the compounds was evaluated using toxicity assays established in our laboratory based on the evaluation of the toxicity induced in a murine macrophages J774.A1 cell line (ATCC® TIB-67™). Concisely, different concentrations of the ICZs were incubated with the cell line, and alamarBlue® reagent (10% of medium volume) was placed in each well and incubated for 24 h, at 37 °C under 5% CO2 conditions. Results were examined as described in Section 2.4.1.

[4] = system: Naegleria fowleri trophozoites; experiment: Detection of DNA/chromatin condensation, Hoechst 33342/propidium iodide double stain; type: cell-based; conditions: IC90, 24 h; similar for both strains
Description: The double-stain apoptosis detection kit constituted by Hoechst 33342 and propidium iodide (PI) (Life Technologies, Madrid. Spain) and an EVOS FL Cell Imaging System AMF4300 (Life Technologies, Madrid, Spain) were used in these experiments as per the manufacturer’s instructions. […] The assay is able to separate three groups of cell populations: dead cells which show an intense red and low-blue fluorescence; healthy cells showing a low level of fluorescence, and cells in PCD presenting intense blue fluorescence (condensed chromatin/DNA).

[5] = system: Naegleria fowleri trophozoites; experiment: Cellular membrane damage, SYTOX Green assay; type: cell-based; conditions: IC90, 24 h; both strains
Protocol: The SYTOX Green assay (Life Technologies, Madrid, Spain) allows the detection of alterations in the permeability of the cell membrane. The SYTOX Green dye binds to DNA, showing intense green fluorescence, only if the plasmatic membrane is damaged and allows it to enter the cytoplasm. […] After 24 h, 1 μM SYTOX Green (final concentration) was added to the cell culture and incubated for 15 min. Next, cells were examined in an EVOS FL Cell Imaging System AMF4300 (Life Technologies, Madrid, Spain).

[6] = system: Naegleria fowleri trophozoites; experiment: Mitochondrial membrane potential, JC-1 assay; type: cell-based; conditions: IC90, 24 h; similar for both strains
Protocol: The evaluation of mitochondrial function disruption in STS-treated amoebae was carried out using the Celltiter-Glo® Luminescent Cell Viability Assay (Promega Biotech Ibérica, Madrid, Spain) and the JC-1 Mitochondrial Membrane Potential Detection Kit (Cayman Chemicals, Vitro SA, Madrid, Spain). The first kit detects the levels of ATP in STS-treated cells in comparison to non-treated cells.
Images were captured using an EVOS FL Cell Imaging System AMF4300 (Life Technologies, Madrid, Spain). The obtained staining pattern permitted the identification of two groups in a cellular population: live cells which would show only red fluorescence and cells presenting low mitochondrial membrane potential (undergoing PCD) which would show an intense level of green and red fluorescence.

[7] = system: Naegleria fowleri trophozoites; experiment: Intracellular ROS generation, CellROX Deep Red assay; type: cell-based; conditions: IC90, 24 h; similar for both strains
Protocol: Next, cells were exposed to 5 μM CellROX Deep Red for 30 min at 37 °C in the dark and observed after using the EVOS FL Cell Imaging System AMF4300 (Life Technologies, Madrid, Spain). The presence of intracellular ROS was shown by the detection of high red fluorescence in the cells.

[8] = system: murine macrophage J774A.1 cell line; experiment: Cytotoxicity assay, alamarBlue; type: cell-based; conditions: 24 h, 37 °C, mean ± SD; read-out: Murine Macrophage J774.A1 CC50
Protocol: as §4, §5

[9] = ATCC30808, 48 h, read-out: N. fowleri ATCC 30808 IC50

Compound	SI (CC50/IC50) [1]	IC50 [1, 9] [nM]	Activity against N. fowleri, in words [1]	CC50 at 24 h ([3]; J774A.1 macrophage cell line) [nM]	other results
COC(=O)C1(O)CC2OC1(C)n1c3ccccc3c3c4c(c5c6ccccc6n2c5c31)C(=O)NC4 (centres unmarked) [K252a (6), K252a]	3.2	340 ± 90			IC50 ([1]; ATCC30808, read-out: Activity (IC50) N. fowleri ATCC 30808, text): 338 ± 90 nM; IC50 [2]: 120 ± 30 nM; CC50 at 24 h [3]: 1070 ± 210 nM
CC12OC(CC1(O)C(=O)O)n1c3ccccc3c3c4c(c5c6ccccc6n2c5c31)CNC4=O (centres unmarked) [K252b (7), K252b]		> 20000			
O=C1NCc2c1c1c3ccccc3[nH]c1c1[nH]c3ccccc3c21 [K252c (8), K252c]		> 20000	no activity was observed		
CO[C@H]1[C@H](O)[C@@H](O)[C@H](n2c3c(Cl)cccc3c3c4c(c5c6cccc(Cl)c6[nH]c5c32)C(=O)NC4=O)O[C@@H]1CO [Rebeccamycin (5), rebeccamycin]		> 20000	not active		
CN[C@@H]1C[C@H]2O[C@@](C)([C@@H]1OC)n1c3ccccc3c3c4c(c5c6ccccc6n2c5c31)C(=O)NC4 [STS (1), staurosporine]					IC90 ([2]; ATCC30215, calculated from IC50 and Hill slope, table footnote, unit inferred, read-out: IC90 N. fowleri ATCC 30215): 970 nM; Chromatin condensation (Hoechst stain) [4]: the nuclei are intense blue; Plasmatic membrane permeabilization (SYTOX Green) [5]: caused plasmatic membrane permeabilization in both strains; Mitochondrial membrane potential (JC-1) [6]: Mitochondrial potential collapse was observed; Intracellular ROS (CellROX Deep Red) [7]: Increased levels of intracellular ROS
CN[C@@H]1C[C@H]2O[C@@](C)([C@@H]1OC)n1c3ccccc3c3c4c(c5c6ccccc6n2c5c31)C(=O)NC4=O [7OSTS (2), 7-oxostaurosporine]	4.1	1280 ± 350			IC50 [2]: 1070 ± 230 nM; CC50 [8]: 5200 ± 1750 nM
CCCCCCCCCCCCCCCCOP(=O)([O-])OCC[N+](C)(C)C [Miltefosine, miltefosine]	3.3			128000 ± 8850	
COC1=C(C)O[C@@H]2C[C@@]1(OC)n1c3ccccc3c3c4c(c5c6ccccc6n2c5c31)C(=O)NC4 [SCZ B (4), streptocarbazole B]	>1.7	11500 ± 310	only active against the N. fowleri ATCC 30808 strain	> 20000	
C[C@@H]1[C@H](O)[C@@H](C)/C=C/C=C/C=C/C=C/C=C/C=C/C=C/[C@H](O[C@@H]2O[C@H](C)[C@@H](O)[C@H](N)[C@@H]2O)C[C@@H]2O[C@](O)(C[C@@H](O)C[C@@H](O)[C@H](O)CC[C@@H](O)C[C@@H](O)CC(=O)O[C@H]1C)C[C@H](O)[C@H]2C(=O)O [Amphotericin B]	≥1666.7	120 ± 30		≥ 200000	IC50 [2]: 160 ± 20 nM
O=C1NC(=O)c2c1c1c3ccccc3[nH]c1c1[nH]c3ccccc3c21 [Arcyriflavin A (9), arcyriaflavin A]		> 20000	no activity was observed		
CO[C@@H]1C(=O)C[C@H]2O[C@]1(C)n1c3ccccc3c3c4c(c5c6ccccc6n2c5c31)C(=O)NC4 [4′D4′OSTS (3), 4′-demethylamino-4′-oxostaurosporine]	>1.9	10800 ± 2920	only active against the N. fowleri ATCC 30808 strain	> 20000	
